Measurements: US20240376076A1, “INHIBITORS TARGETING UBIQUITIN SPECIFIC PROTEASE 7 (USP7)” (Dana-Farber Cancer Institute, Inc., priority 2021, published 2024)

How the values were obtained:
[1] = target: T1, USP7, Active human recombinant protein (Homo sapiens, UniProt Q93009); assay: USP7 assay (Ubiquitin-Rhodamine 110 enzymatic assay); type: biochemical; conditions: read-out: IC50
T1 construct: purchased CP Lot; 20200225001
Summary of the method: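 Kinetic 20-min fluorescence read (485/535 nm) of ubiquitin-rhodamine 110 (190 nM final) cleavage by 0.05 nM USP7 gave slopes. Compounds, 10 concentrations in 3-fold steps, had 15 min RT preincubation with enzyme first. Inhibition relative to max (enzyme+substrate) and min (substrate only) signals, fitted to IC50.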

[2] = mouse liver microsomal stability (Microsome Assay Protocol); type: in vitro ADME; conditions: pH 7.4; mouse liver microsomes, NADPH, 37° C.; read-out: MLM t1/2, min
Method: ND refers to not disclosed.
• 1. Buffer A: 1.0 L of 0.1 M monobasic Potassium Phosphate buffer containing 1.0 mM EDTA Buffer B: 1.0 L of 0.1 M Dibasic Potassium Phosphate buffer containing 1.0 mM EDTA • Buffer C: 0.1 M Potassium Phosphate buffer, 1.0 mM EDTA, pH 7.4 by titrating 700 mL of buffer B with buffer A while monitoring with a pH meter. • 2. Reference compound (Ketanserin) and test compounds spiking solution: • 500 μM spiking solution: added 10 μL of 10 mM DMSO stock solution into 190 μL ACN. • 1.5 μM spiking solution in microsomes (0.75 mg/mL): added 1.5 μL of 500 μM spiking solution and 18.75 μL of 20 mg/mL liver microsomes into 479.75 μL of Buffer C on ice. • 3. Prepared NADPH stock solution (6 mM) by dissolving NADPH into buffer C. Dispensed 30 μL of 1.5 μM spiking solution containing 0.75 mg/mL microsomes solution to the assay plates designated for different time points (0-, 5-, 15-, 30-, 45-min) on ice. For 0-min, added 135 μL of ACN containing IS to the wells of 0-min plate and then added 15 μL of NADPH stock solution (6 mM). Pre-incubated all other plates at 37° C. for 5 minutes. Added 15 μL of NADPH stock solution (6 mM) to the plates to start the reaction and timing. At 5-min, 15-min, 30-min, and 45-min, added 135 μL of ACN containing IS to the wells of corresponding plates, respectively, to stop the reaction. After quenching, shook the plates at the vibrator (IKA, MTS 2/4) for 10 min (600 rpm/min) and then centrifuged at 5594 g for 15 min (Thermo Multifuge×3R). Transferred 50 μL of the supernatant from each well into a 96-well sample plate containing 50 μL of ultra pure water (Millipore, ZMQS50F01) for LC/MS analysis.

T1 sequence (Q93009 whole entry): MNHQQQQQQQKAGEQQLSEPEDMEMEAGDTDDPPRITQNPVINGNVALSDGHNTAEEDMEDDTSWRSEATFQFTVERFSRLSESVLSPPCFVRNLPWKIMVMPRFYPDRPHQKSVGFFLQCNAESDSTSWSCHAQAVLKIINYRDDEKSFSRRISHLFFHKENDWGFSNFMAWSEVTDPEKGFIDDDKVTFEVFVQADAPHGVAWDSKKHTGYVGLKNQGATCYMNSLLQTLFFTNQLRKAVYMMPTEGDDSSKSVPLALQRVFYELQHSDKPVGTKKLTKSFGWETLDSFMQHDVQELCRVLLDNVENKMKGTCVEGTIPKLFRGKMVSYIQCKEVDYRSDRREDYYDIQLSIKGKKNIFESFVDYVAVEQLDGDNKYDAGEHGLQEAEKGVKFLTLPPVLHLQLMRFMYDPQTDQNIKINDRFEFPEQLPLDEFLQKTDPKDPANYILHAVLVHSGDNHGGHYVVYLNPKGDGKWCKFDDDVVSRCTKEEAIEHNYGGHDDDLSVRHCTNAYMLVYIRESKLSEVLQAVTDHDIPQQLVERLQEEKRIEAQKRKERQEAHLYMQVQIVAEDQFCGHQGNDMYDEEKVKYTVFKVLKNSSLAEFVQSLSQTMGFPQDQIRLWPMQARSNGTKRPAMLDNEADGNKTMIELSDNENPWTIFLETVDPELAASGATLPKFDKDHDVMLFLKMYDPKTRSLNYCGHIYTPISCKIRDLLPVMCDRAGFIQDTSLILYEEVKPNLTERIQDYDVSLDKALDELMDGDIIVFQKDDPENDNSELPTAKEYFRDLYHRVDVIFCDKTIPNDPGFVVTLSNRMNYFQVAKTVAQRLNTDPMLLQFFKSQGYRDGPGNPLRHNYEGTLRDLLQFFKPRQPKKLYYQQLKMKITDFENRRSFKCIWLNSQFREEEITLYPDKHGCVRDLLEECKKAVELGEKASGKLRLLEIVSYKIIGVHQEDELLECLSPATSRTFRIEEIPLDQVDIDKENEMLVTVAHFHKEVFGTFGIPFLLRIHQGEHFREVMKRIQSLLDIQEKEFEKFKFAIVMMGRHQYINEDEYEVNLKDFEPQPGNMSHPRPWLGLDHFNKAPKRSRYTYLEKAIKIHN

IC50 [1] [nM]	half-life at 1 µM [2] [min]	Compound
20 to 100	1.5	Cn1nc2c(=O)n(CC3(O)CCN(C(=O)C(CCCNC(=O)c4ccc5c(Cl)ccnc5c4)Cc4ccccc4)CC3)cnc2c1-c1cccc(C#N)c1 (centres unmarked) [Compound 10, N-(4-benzyl-5-(4-((3-(3-cyanophenyl)-2-methyl-7-oxo-2,7-dihydro-6H-pyrazolo[4,3-d]pyrimidin-6-yl)methyl)-4-hydroxypiperidin-1-yl)-5-oxopentyl)-4-chloroquinoline-7-carboxamide]
20 to 100	12.1	O=C(NCCCC(Cc1ccccc1)C(=O)N1CCC(O)(Cn2cnc(NCCN3CCCC3)cc2=O)CC1)c1ccc2c(Cl)ccnc2c1 (centres unmarked) [Compound 11, N-(4-benzyl-5-(4-hydroxy-4-((6-oxo-4-(2-(pyrrolidin-1-yl)ethylamino)pyrimidin-1(6H)-yl)methyl)piperidin-1-yl)-5-oxopentyl)-4-chloroquinoline-7-carboxamide]
20 to 100	21.2	CN1CCN(CCC(=O)Nc2ccc3c(=O)n(CC4(O)CCN(C(=O)C(CCCNC(=O)c5ccc6c(Cl)cc(-c7cnn(CC(F)(F)F)c7)nc6c5)Cc5ccccc5)CC4)cnc3c2)CC1 (centres unmarked) [Compound 18, N-(4-benzyl-5-(4-hydroxy-4-((7-(3-(4-methylpiperazin-1-yl)propanamido)-4-oxoquinazolin-3(4H)-yl)methyl)piperidin-1-yl)-5-oxopentyl)-4-chloro-2-(1-(2,2,2-trifluoroethyl)-1H-pyrazol-4-yl)quinoline-7-carboxamide]
> 1000	18.5	CN1CCN(CCC(=O)Nc2ccc3c(=O)n(CC4(O)CCN(C(=O)C(CCCNC(=O)c5ccc6c(Cl)cc(C7(F)CC7)nc6c5)Cc5ccccc5)CC4)cnc3c2)CC1 (centres unmarked) [Compound 21, N-(4-benzyl-5-(4-hydroxy-4-((7-(3-(4-methylpiperazin-1-yl)propanamido)-4-oxoquinazolin-3(4H)-yl)methyl)piperidin-1-yl)-5-oxopentyl)-4-chloro-2-(1-fluorocyclopropyl)quinoline-7-carboxamide]
> 1000	20	CN1CCN(CCn2cc3ncn(CC4(O)CCN(C(=O)C(CCCNC(=O)c5ccc6c(Cl)ccnc6c5)Cc5ccccc5)CC4)c(=O)c3n2)CC1 (centres unmarked) [Compound 27]
20 to 100	16.7	CN1CCN(CC(=O)Nc2ccc3c(=O)n(CC4(O)CCN(C(=O)C(CCCNC(=O)c5ccc6c(Cl)ccnc6c5)Cc5ccccc5)CC4)cnc3c2)CC1 (centres unmarked) [Compound 29, N-(4-benzyl-5-(4-hydroxy-4-((7-(2-(4-methylpiperazin-1-yl)acetamido)-4-oxoquinazolin-3(4H)-yl)methyl)piperidin-1-yl)-5-oxopentyl)-4-chloroquinoline-7-carboxamide]
100 to 1000	2.9	CN(C)CC(=O)Nc1ccc2c(=O)n(CC3(O)CCN(C(=O)C(CCCNC(=O)c4ccc5c(Cl)c6c(nc5c4)CN(C)C6)Cc4ccccc4)CC3)cnc2c1 (centres unmarked) [Compound 31, N-(4-benzyl-5-(4-((7-(2-(dimethylamino)acetamido)-4-oxoquinazolin-3(4H)-yl)methyl)-4-hydroxypiperidin-1-yl)-5-oxopentyl)-9-chloro-2-methyl-2,3-dihydro-1H-pyrrolo[3,4-b]quinoline-6-carboxamide]
20 to 100	2.5	CN(C)CC(=O)Nc1ccc2c(=O)n(CC3(O)CCN(C(=O)C(CCCNC(=O)c4ccc5c(Cl)c6c(nc5c4)CCN(C)C6)Cc4ccccc4)CC3)cnc2c1 (centres unmarked) [Compound 32, N-(4-benzyl-5-(4-((7-(2-(dimethylamino)acetamido)-4-oxoquinazolin-3(4H)-yl)methyl)-4-hydroxypiperidin-1-yl)-5-oxopentyl)-10-chloro-2-methyl-1,2,3,4-tetrahydrobenzo[b][1,6]naphthyridine-7-carboxamide]
< 20	2.1	CC(=O)N1CCc2nc3cc(C(=O)NCCCC(Cc4ccccc4)C(=O)N4CCC(O)(Cn5cnc6cc(NC(=O)CN(C)C)ccc6c5=O)CC4)ccc3c(Cl)c2C1 (centres unmarked) [Compound 33, 2-acetyl-N-(4-benzyl-5-(4-((7-(2-(dimethylamino)acetamido)-4-oxoquinazolin-3(4H)-yl)methyl)-4-hydroxypiperidin-1-yl)-5-oxopentyl)-10-chloro-1,2,3,4-tetrahydrobenzo[b][1,6]naphthyridine-7-carboxamide]
20 to 100	7.4	CN(C)CCC(=O)Nc1ccc2c(=O)n(CC3(O)CCN(C(=O)C(CCCNC(=O)c4ccc5c(Cl)c6c(nc5c4)CN(C)CC6)Cc4ccccc4)CC3)cnc2c1 (centres unmarked) [Compound 40, N-(4-benzyl-5-(4-((7-(3-(dimethylamino)propanamido)-4-oxoquinazolin-3(4H)-yl)methyl)-4-hydroxypiperidin-1-yl)-5-oxopentyl)-5-chloro-2-methyl-1,2,3,4-tetrahydrobenzo[b][1,7]naphthyridine-8-carboxamide]
20 to 100	12.4	CN(C)CCC(=O)Nc1ccc2c(=O)n(CC3(O)CCN(C(=O)C(CCCNC(=O)c4ccc5c(Cl)ccnc5n4)Cc4ccccc4)CC3)cnc2c1 (centres unmarked) [Compound 47, N-(4-benzyl-5-(4-((7-(3-(dimethylamino)propanamido)-4-oxoquinazolin-3(4H)-yl)methyl)-4-hydroxypiperidin-1-yl)-5-oxopentyl)-5-chloro-1,8-naphthyridine-2-carboxamide]
< 20	13.5	Cc1cc(Cl)c2ccc(C(=O)NCCCC(Cc3ccccc3)C(=O)N3CCC(O)(Cn4cnc5cc(NC(=O)CCN(C)C)ccc5c4=O)CC3)cc2n1 (centres unmarked) [Compound 49, N-(4-benzyl-5-(4-((7-(3-(dimethylamino)propanamido)-4-oxoquinazolin-3(4H)-yl)methyl)-4-hydroxypiperidin-1-yl)-5-oxopentyl)-4-chloro-2-methylquinoline-7-carboxamide]
100 to 1000	15.1	CN(C)CCC(=O)Nc1ccc2c(=O)n(CC3(O)CCN(C(=O)c4cn(CCNC(=O)c5ccc6c(Cl)ccnc6c5)nc4Cc4ccccc4)CC3)cnc2c1 [Compound 52, N-(2-(3-benzyl-4-(4-((7-(3-(dimethylamino)propanamido)-4-oxoquinazolin-3(4H)-yl)methyl)-4-hydroxypiperidine-1-carbonyl)-1H-pyrazol-1-yl)ethyl)-4-chloroquinoline-7-carboxamide]
20 to 100	36.5	CN(C)CCC(=O)Nc1ccc2c(=O)n(CC3(O)CCN(C(=O)C4CN(CCNC(=O)c5ccc6c(Cl)ccnc6c5)CC4Cc4ccccc4)CC3)cnc2c1 (centres unmarked) [Compound 54]
> 1000	35.6	CN(C)CCC(=O)Nc1ccc2c(=O)n(CC3(O)CCN(C(=O)c4cn(CCNC(=O)c5ccc6c(Cl)ccnc6c5)nc4-c4ccccc4)CC3)cnc2c1 [Compound 55, 4-chloro-N-(2-(4-(4-((7-(3-(dimethylamino)propanamido)-4-oxoquinazolin-3(4H)-yl)methyl)-4-hydroxypiperidine-1-carbonyl)-3-phenyl-1H-pyrazol-1-yl)ethyl)quinoline-7-carboxamide]
> 1000	95.9	CN(C)CCC(=O)Nc1ccc2c(=O)n(CC3(O)CCN(C(=O)c4cn(CCNC(=O)c5ccc6c(Cl)ccnc6c5)nc4C4CC4)CC3)cnc2c1 [Compound 56, 4-chloro-N-(2-(3-cyclopropyl-4-(4-((7-(3-(dimethylamino)propanamido)-4-oxoquinazolin-3(4H)-yl)methyl)-4-hydroxypiperidine-1-carbonyl)-1H-pyrazol-1-yl)ethyl)quinoline-7-carboxamide]
20 to 100	2.71	O=C(CCN1CCOCC1)Nc1ccc2c(=O)n(CC3(O)CCN(C(=O)C(CCCNC(=O)c4ccc5c(Cl)ccnc5c4)Cc4ccccc4)CC3)cnc2c1 (centres unmarked) [Compound 60, N-(4-benzyl-5-(4-hydroxy-4-((7-(3-morpholinopropanamido)-4-oxoquinazolin-3(4H)-yl)methyl)piperidin-1-yl)-5-oxopentyl)-4-chloroquinoline-7-carboxamide]
100 to 1000	4.16	O=C(CCn1ccnc1)Nc1ccc2c(=O)n(CC3(O)CCN(C(=O)C(CCCNC(=O)c4ccc5c(Cl)ccnc5c4)Cc4ccccc4)CC3)cnc2c1 (centres unmarked) [Compound 63, N-(5-(4-((7-(3-(1H-imidazol-1-yl)propanamido)-4-oxoquinazolin-3(4H)-yl)methyl)-4-hydroxypiperidin-1-yl)-4-benzyl-5-oxopentyl)-4-chloroquinoline-7-carboxamide]
100 to 1000	12.8	CN(C)CCC(=O)Nc1ccc2c(=O)n(CC3(O)CCN(C(=O)C(CCCNC(=O)c4ccc5c(Cl)cc(O)nc5c4)Cc4ccccc4)CC3)cnc2c1 (centres unmarked) [Compound 65]
